# Laboratory results taken from patent publication US20080119488A1, “Modulators Of Nuclear Receptors” (EXELIXIS, INC., priority 2004, published 2008).
# Target: T1, LXRα or LXRβ
# T1 construct: fused on or other part: N-terminal poly-His tag from the pBacPakhis1 vector
# Test: Saturation binding of [3H] 24,25 epoxycholesterol (EC) to the receptor
# Design: species or system human
# Settings: as determined by saturation binding; typical value used for the Cheng and Prusoff equation
# Method: The SPA assay measures the radioactive signal generated by the binding of ^3H-24,25-epoxycholesterol to LXRα or LXRβ. The basis of the assay is the use of SPA beads containing a scintillant, such that when binding to the receptor brings the labeled ligand into proximity with the bead, the energy from the label stimulates the scintillant to emit light. The light is measured using a standard microplate scintillation reader. The ability of a ligand to bind to a receptor can be measured by assessing the degree to which the compound can compete off a radiolabelled ligand with known affinity for the receptor.
# For this assay, typically the Concentration of Ligand=50 nM and the Kd of EC for the receptor is 200 nM as determined by saturation binding.
smiles,measurement,value
"C[C@H](CCC1OC1(C)C)[C@H]1CC[C@H]2[C@@H]3CC=C4C[C@@H](O)CC[C@]4(C)[C@H]3CC[C@]12C (stereo partly shown) [EC, 24,25 Epoxycholesterol]",Kd,200 nM
